Test results from patent publication US20190167576A1, “USE OF HIGH AFFINITY MONOCLONAL ANTIBODY PRODUCT BINDERS TO INCREASE THE DURATION OF ACTION OF THERAPEUTIC MONOCLONAL ANTIBODY PRODUCTS IN A BIOLOGIC TISSUE” (priority 2016, published 2019).

Biological target: monoclonal antibody products
Conditions: binding to monoclonal antibody products; read-out: dissociation constant (KD)

SMILES: Nc1cccc(Nc2nc(NCCO)nc(NCC(O)CNc3nc(NCCO)nc(Nc4cccc(N)c4)n3)n2)c1 [Compound 1, 1,3-bis({4-[(3-aminophenyl)amino]-6-[(2-hydroxyethyl)amino]-1,3,5-triazin-2-yl}amnio)propan-2-ol]
- Kd: < 1 µM
